The values below come from patent US7189702B2, “Glucopyranosyloxypyrazole derivatives and medicinal use thereof” (Kissei Pharmaceutical Co., Ltd., priority 2001, dated 2007).

SMILES strings stand for the structures. Some results are limits rather than exact numbers.

For the first assay, the target named is T1, human SGLT2 (Homo sapiens, UniProt P31639, I433V).
T1 construct: expressed in transfected cells; host or cells: COS-7 cells (RIKEN CELL BANK RCB0539), transient, electroporation of KL29
T1 sequence (P31639 1-672 I433V): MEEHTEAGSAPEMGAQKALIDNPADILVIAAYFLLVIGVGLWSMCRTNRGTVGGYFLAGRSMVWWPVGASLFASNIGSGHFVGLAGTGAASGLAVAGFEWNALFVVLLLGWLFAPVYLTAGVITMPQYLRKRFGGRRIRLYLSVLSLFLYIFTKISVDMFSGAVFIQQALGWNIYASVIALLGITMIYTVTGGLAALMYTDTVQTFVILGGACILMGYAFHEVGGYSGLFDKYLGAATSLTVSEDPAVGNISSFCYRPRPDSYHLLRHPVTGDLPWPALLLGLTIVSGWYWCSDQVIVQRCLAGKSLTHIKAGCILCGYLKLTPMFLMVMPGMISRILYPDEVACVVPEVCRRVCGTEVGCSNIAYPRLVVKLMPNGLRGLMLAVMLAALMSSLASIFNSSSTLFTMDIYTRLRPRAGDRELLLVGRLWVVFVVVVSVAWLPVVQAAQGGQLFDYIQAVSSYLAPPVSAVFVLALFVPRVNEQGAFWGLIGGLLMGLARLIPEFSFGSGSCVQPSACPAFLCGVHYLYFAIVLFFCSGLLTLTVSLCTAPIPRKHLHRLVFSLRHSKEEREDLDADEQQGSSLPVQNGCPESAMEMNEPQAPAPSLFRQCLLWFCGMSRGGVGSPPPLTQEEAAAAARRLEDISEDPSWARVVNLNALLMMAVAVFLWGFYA
The assay can be described thus: Assay for inhibitory effect on human SGLT2 activity (uptake of methyl-α-D-glucopyranoside). Particulars: inhibition of methyl-α-D-(U-14C)glucopyranoside uptake, COS-7 cells expressing transiently human SGLT2, 37° C., 2 hours. The assay is classed as cell-based. The protocol:
Assay for Inhibitory Effect on Human SGLT2 Activity
1) Construction of the Plasmid Vector Expressing Human SGLT2
Preparation of the cDNA library for PCR amplification was performed by reverse transcription of a total RNA deprived from human kidney (Ori gene) with oligo dT as the primer, using SUPERSCRIPT Preamplification System (Gibco-BRL: LIFE TECHNOLOGIES). The DNA fragment coding for human SGLT2 was amplified by the PCR reaction, in which the human kidney cDNA library described above was used as the template and the following oligo nucleotides 0702F and 0712R, presented as Sequence Numbers 1 and 2 respectively, were used as the primers. The amplified DNA fragment was ligated into pCR-Blunt (Invitrogen), a vector for cloning, according to standard method of the kit. The Escherichia coli HB101 was transformed according to usual method and then selection of the transformants was performed on the LB agar medium containing 50 μg/mL of kanamycin. After plasmid DNA was extracted and purified from the one of the transformants, amplifying of the DNA fragment coding for human SGLT2 was performed by the PCR reaction, in which the following oligo nucleotides 0714F and 0715R, presented as Sequence Numbers 3 and 4 respectively, were used as the primers. The amplified DNA fragment was digested with restriction enzymes, Xho I and Hind III, and then purified with Wizard Purification System (Promega). This purified DNA fragment was inserted at the corresponding restriction sites of pcDNA3.1 (−) Myc/His-B (Invitrogen), a vector for expressing of fusion protein. The Escherichia coli HB101 was transformed according to usual method and then selection of the transformant was performed on the LB agar medium containing 100 μg/mL of ampicillin. After plasmid DNA was extracted and purified from this transformant, the base sequence of the DNA fragment inserted at the multi-cloning sites of the vector pcDNA3.1 (−) Myc/His-B was analyzed. […] Sequentially, a clone in which valine is substituted for isoleucine-433 was obtained. This plasmid vector expressing human SGLT2 in which the peptide presented as Sequence Number 5 is fused to the carboxyl terminal alanine residue was designated KL29.
2) Preparation of the Cells Expressing Transiently Human SGLT2
KL29, the plasmid coding human SGLT2, was transfected into COS-7 cells (RIKEN CELL BANK RCB0539) by electroporation. Electroporation was performed with GENE PULSER II (Bio-Rad Laboratories) under the condition: 0.290 kV, 975 μF, 2×10^6 cells of COS-7 cell and 20 μg of KL29 in 500 μL of OPTI-MEM I medium (Gibco-BRL: LIFE TECHNOLOGIES) in the 0.4 cm type cuvette. After the gene transfer, the cells were harvested by centrifugation and resuspended with OPTI-MEM I medium (1 mL/cuvette). To each well in 96-wells plate, 125 μL of this cell suspension was added. After overnight culture at 37° C. under 5% CO2, 125 μL of DMEM medium which is containing 10% of fetal bovine serum (Sanko Jyunyaku), 100 units/mL sodium penicillin G (Gibco-BRL: LIFE TECHNOLOGIES), and 100 μg/mL streptomycin sulfate (Gibco-BRL: LIFE TECHNOLOGIES) was added to each well. These cells were cultured until the next day and then they were used for the measurement of the inhibitory activity against the uptake of methyl-α-D-glucopyranoside.
3) Measurement of the Inhibitory Activity Against the Uptake of methyl-α-D-glucopyranoside
After a test compound was dissolved in dimethyl sulfoxide and diluted with the uptake buffer (a pH 7.4 buffer containing 140 mM sodium chloride, 2 mM potassium chloride, 1 mM calcium chloride, 1 mM magnesium chloride, 5 mM methyl-α-D-glucopyranoside, 10 mM 2-[4-(2-hydroxyethyl)-1-piperazinyl]ethane sulfonic acid and 5 mM tris(hydroxymethyl)aminomethane), each diluent was used as test sample for measurement of the inhibitory activity. […]
Broadly, the IC50 is the concentration needed to halve the response being measured. High values mean lower potency, low ones higher potency. As to `Cc1c(Cc2ccc(C3CC3)cc2)c(O[C@@H]2O[C@H](CO)[C@@H](O)[C@H](O)[C@H]2O)nn1CC1CC1` [Example 32, 3-(β-D-Glucopyranosyloxy)-5-methyl-1-(cyclopropylmethyl)-4-[(4-cyclopropylphenyl)methyl]-1H-pyrazole], the IC50 is 26 nM.
Still for that read-out and setting: in the case of `Cc1[nH]nc(O[C@@H]2O[C@H](CO)[C@@H](O)[C@H](O)[C@H]2O)c1Cc1ccc(OC2CCC2)cc1` [Example 27, 4-{[4-(Cyclobutyloxy)phenyl]methyl}-3-(β-D-glucopyranosyloxy)-5-methyl-1H-pyrazole] it was 210 nM.
Same read-out and setting: in the case of `Cc1[nH]nc(O[C@@H]2O[C@H](CO)[C@@H](O)[C@H](O)[C@H]2O)c1Cc1ccc(C=C2CC2)cc1` [Example 20, 3-(β-D-Glucopyranosyloxy)-5-methyl-4-{[4-(cyclopropylidenemethyl)phenyl]methyl}-1H-pyrazole] it was 15 nM; in that of `OCCCc1ccc(Cc2c(O[C@@H]3O[C@H](CO)[C@@H](O)[C@H](O)[C@H]3O)n[nH]c2C(F)(F)F)cc1` [Example 24, 3-(β-D-Glucopyranosyloxy)-4-{[4-(3-hydroxypropyl)phenyl]methyl}-5-trifluoromethyl-1H-pyrazole], 57 nM.
The same measure, in the same setting: in the case of `CSc1ccc(Cc2c(C(F)(F)F)[nH][nH]c2=O)cc1` [WAY-123783, reference compound] it was greater than 100000 nM; in that of `CCc1ccc(Cc2c(O[C@@H]3O[C@H](CO)[C@@H](O)[C@H](O)[C@H]3O)nn(CCCO)c2C)cc1` [Example 39, 4-[(4-Ethylphenyl)methyl]-3-(β-D-glucopyranosyloxy)-1-(3-hydroxypropyl)-5-methyl-1H-pyrazole], 47 nM; in that of `Cc1[nH]nc(O[C@@H]2O[C@H](CO)[C@@H](O)[C@H](O)[C@H]2O)c1Cc1ccc(-c2nccs2)cc1` [Example 23, 3-(β-D-Glucopyranosyloxy)-5-methyl-4-{[4-(thiazol-2-yl)phenyl]methyl}-1H-pyrazole], 46 nM.
The compound `CSc1ccc(Cc2c(O[C@@H]3O[C@H](CO)[C@@H](O)[C@H](O)[C@H]3O)nn(CC3CC3)c2C)cc1` [Example 38, 1-(Cyclopropylmethyl)-3-(β-D-glucopyranosyloxy)-5-methyl-4-[(4-methylthiophenyl)methyl]-1H-pyrazole] registered an IC50 of 45 nM.
`Cc1[nH]nc(O[C@@H]2O[C@H](CO)[C@@H](O)[C@H](O)[C@H]2O)c1Cc1ccc(-c2ccc(F)cc2)cc1` [Example 26, 4-{[4-(4-Fluorophenyl)phenyl]methyl}-3-(β-D-glucopyranosyloxy)-5-methyl-1H-pyrazole] showed an IC50 of 150 nM.
On the same count and under the same terms, in the case of `CC(C)=Cc1ccc(Cc2c(O[C@@H]3O[C@H](CO)[C@@H](O)[C@H](O)[C@H]3O)n[nH]c2C)cc1` [Example 25, 3-(β-D-Glucopyranosyloxy)-5-methyl-4-{[4-(2-methylprop-1-en-1-yl)phenyl]methyl}-1H-pyrazole] it was 65 nM.
On to `CC/C=C/c1ccc(Cc2c(O[C@@H]3O[C@H](CO)[C@@H](O)[C@H](O)[C@H]3O)n[nH]c2C)cc1` [Example 22, (E)-4-{[4-(But-1-en-1-yl)phenyl]methyl}-3-(β-D-glucopyranosyloxy)-5-methyl-1H-pyrazole], for which 41 nM corresponded to half-maximal inhibition (IC50).
On the same count and under the same terms, to `Cc1[nH]nc(O[C@@H]2O[C@H](CO)[C@@H](O)[C@H](O)[C@H]2O)c1Cc1ccc(C2CC2)cc1` [Example 21, 3-(β-D-Glucopyranosyloxy)-5-methyl-4-[(4-cyclopropylphenyl)methyl]-1H-pyrazole] belongs 18 nM.

The same assay, now with this note: statement in words.
As for `CSc1ccc(Cc2c(C(F)(F)F)[nH][nH]c2=O)cc1` [WAY-123783, reference compound], the “inhibitory activity in human SGLT2” value was “extremely weak”.

System in the next assay: not given
Assay: not given
Particulars: normal mice; J. Med. Chem., Vol. 39, pp. 3920–3928 (1996); cited from earlier work.
With `CSc1ccc(Cc2c(C(F)(F)F)[nH][nH]c2=O)cc1` [WAY-123783, reference compound], the “amount of excreted glucose” value is on record as “increased”.
